Results taken from patent US10745361B2, “Piperazine derivatives having multimodal activity against pain” (ESTEVE PHARMACEUTICALS, S.A., priority 2013, dated 2020).

biological target: human σ1 receptor and human μ-opioid receptor; assay: Human σ1 receptor radioligand assay and human μ-opioid receptor radioligand assay (μ and σ1 dual binding); design: key to μ and σ1 dual binding: +: Both Ki-μ and Ki-σ1>=500 nM; ++: One K, <500 nM while the other K, is >=500 nM; +++: Both Ki-μ and Ki-σ1<500 nM; ++++: Both Ki-μ and Ki-σ1<100 nM; details: one class for both Ki: σ1 ([3H](+)-pentazocine, transfected HEK-293 membranes) and μ-opioid ([3H]-DAMGO, transfected CHO-K1 membranes)
Protocol: Human σ1 Receptor Radioligand Assay
To investigate binding properties of σ1 receptor ligands to human σ1 receptor, transfected HEK-293 membranes and [^3H](+)-pentazocine (Perkin Elmer, NET-1056), as the radioligand, were used. The assay was carried out with 7 μg of membrane suspension, 5 nM of [^3H](+)-pentazocine in either absence or presence of either buffer or 10 μM Haloperidol for total and non-specific binding, respectively. Binding buffer contained Tris-HCl 50 mM at pH 8. Plates were incubated at 37° C. for 120 minutes. After the incubation period, the reaction mix was then transferred to MultiScreen HTS, FC plates (Millipore), filtered and plates were washed 3 times with ice-cold 10 mM Tris-HCL (pH7.4). Filters were dried and counted at approximately 40% efficiency in a MicroBeta scintillation counter (Perkin-Elmer) using EcoScint liquid scintillation cocktail
Human μ-Opioid Receptor Radioligand Assay
To investigate binding properties of p-opioid receptor ligands to human p-opioid receptor, transfected CHO-K1 cell membranes and [^3H]-DAMGO (Perkin Elmer, ES-542-C), as the radioligand, were used. The assay was carried out with 20 μg of membrane suspension, 1 nM of [^3H]-DAMGO in either absence or presence of either buffer or 10 μM Naloxone for total and non-specific binding, respectively. Binding buffer contained Tris-HCl 50 mM, MgCl2 5 mM at pH 7.4. Plates were incubated at 27° C. for 60 minutes. After the incubation period, the reaction mix was then transferred to MultiScreen HTS, FC plates (Millipore), filtered and plates were washed 3 times with ice-cold 10 mM Tris-HCL (pH 7.4). Filters were dried and counted at approximately 40% efficiency in a MicroBeta scintillation counter (Perkin-Elmer) using
EcoScint liquid scintillation cocktail.
The following scale as been adopted for representing the binding to the σ1 receptor and the μ-opiod receptor expressed as Ki: • + Both Ki-μ and Ki-σ1>=500 nM • ++ One K, <500 nM while the other K, is >=500 nM • +++ Both Ki-μ and Ki-σ1<500 nM • ++++ Both Ki-μ and Ki-σ1<100 nM

| SMILES | Ki [nM] | μ and σ1 dual binding |
| --- | --- | --- |
| CC(C)S(=O)(=O)Nc1cccc(N2CCN(Cc3cn(-c4ccccc4)nn3)CC2)c1 [Example 1, N-(3-(4-((1-phenyl-1H-1,2,3-triazol-4-yl)methyl)piperazin-1-yl)phenyl)propane-2-sulfonamide] | < 100 | – |
| CC(C)S(=O)(=O)Nc1cccc(N2CCN(Cc3cn(-c4cncc(Cl)c4)nn3)CC2)n1 [Example 2, N-(6-(4-((1-(5-chloropyridin-3-yl)-1H-1,2,3-triazol-4-yl)methyl)piperazin-1-yl)pyridin-2-yl)propane-2-sulfonamide] | – | ++ |
| CS(=O)(=O)Nc1cccc(N2CCN(Cc3cn(Cc4ccccc4)nn3)CC2)c1 [Example 3, N-(3-(4-((1-benzyl-1H-1,2,3-triazol-4-yl)methyl)piperazin-1-yl)phenyl)methanesulfonamide] | – | ++ |
| CS(=O)(=O)Nc1cccc(N2CCN(Cc3cn(-c4ccccc4)nn3)CC2)c1 [Example 4, N-(3-(4-((1-phenyl-1H-1,2,3-triazol-4-yl)methyl)piperazin-1-yl)phenyl)methanesulfonamide] | < 500 | – |
| Oc1cccc(N2CCN(Cc3cn(-c4ccccc4)nn3)CC2)c1 [Example 5, 3-(4-((1-phenyl-1H-1,2,3-triazol-4-yl)methyl)piperazin-1-yl)phenol] | – | ++ |
| Oc1cccc(N2CCN(Cc3cn(Cc4ccccc4)nn3)CC2)c1 [Example 6, 3-(4-((1-benzyl-1H-1,2,3-triazol-4-yl)methyl)piperazin-1-yl)phenol] | – | ++ |
| Oc1cccc(N2CCN(Cc3cn(-c4ccccn4)nn3)CC2)c1 [Example 7, 3-(4-((1-(pyridin-2-yl)-1H-1,2,3-triazol-4-yl)methyl)piperazin-1-yl)phenol] | – | ++ |
| CS(=O)(=O)Nc1cccc(N2CCN(Cc3cn(-c4ccc(C(F)(F)F)nc4)nn3)CC2)c1 [Example 8, N-(3-(4-((1-(6-(trifluoromethyl)pyridin-3-yl)-1H-1,2,3-triazol-4-yl)methyl)piperazin-1-yl)phenyl)methanesulfonamide] | ≥ 500 | – |
| CC(C)S(=O)(=O)Nc1cccc(N2CCN(Cc3cn(-c4ccccc4F)nn3)CC2)c1 [Example 9, N-(3-(4-((1-(2-fluorophenyl)-1H-1,2,3-triazol-4-yl)methyl)piperazin-1-yl)phenyl)propane-2-sulfonamide] | < 100 | – |
| CCS(=O)(=O)Nc1cccc(N2CCN(Cc3cn(-c4ccccc4)nn3)CC2)c1 [Example 10, N-(3-(4-((1-phenyl-1H-1,2,3-triazol-4-yl)methyl)piperazin-1-yl)phenyl)ethanesulfonamide] | < 500 | – |
| CS(=O)(=O)Nc1cccc(NC2CCN(Cc3cn(-c4ccccc4)nn3)C2)c1 (stereo not shown) [Example 11, N-(3-(1-((1-phenyl-1H-1,2,3-triazol-4-yl)methyl)pyrrolidin-3-ylamino)phenyl)methanesulfonamide] | < 500 | – |
| CS(=O)(=O)Nc1cccc(NC2CN(Cc3cn(-c4ccccc4)nn3)C2)c1 [Example 12, N-(3-(1-((1-phenyl-1H-1,2,3-triazol-4-yl)methyl)azetidin-3-ylamino)phenyl)methanesulfonamide] | < 500 | – |
| CS(=O)(=O)Nc1cccc(N2CC3CN(Cc4cn(-c5ccccc5)nn4)CC3C2)c1 (stereo not shown) [Example 13, N-(3-(5-((1-phenyl-1H-1,2,3-triazol-4-yl)methyl)hexahydropyrrolo[3,4-c]pyrrol-2(1H)-yl)phenyl)methanesulfonamide] | < 500 | – |
| CN(c1cccc(NS(C)(=O)=O)c1)C1CCN(Cc2cn(-c3ccccc3)nn2)C1 (stereo not shown) [Example 14, N-(3-(methyl(1-((1-phenyl-1H-1,2,3-triazol-4-yl)methyl)pyrrolidin-3-yl)amino)phenyl)methanesulfonamide] | < 100 | – |
| CN(c1cccc(NS(C)(=O)=O)c1)C1CN(Cc2cn(-c3ccccc3)nn2)C1 [Example 15, N-(3-(methyl(1-((1-phenyl-1H-1,2,3-triazol-4-yl)methyl)azetidin-3-yl)amino)phenyl)methanesulfonamide] | < 500 | – |
| CC(C)S(=O)(=O)Nc1cccc(N2CCN(Cc3cn(Cc4ccccn4)nn3)CC2)c1 [Example 16, N-(3-(4-((1-(pyridin-2-ylmethyl)-1H-1,2,3-triazol-4-yl)methyl)piperazin-1-yl)phenyl)propane-2-sulfonamide] | – | ++ |

| SMILES | Ki [nM] | μ and σ1 dual binding |
| --- | --- | --- |
| CC(C)S(=O)(=O)Nc1cccc(N2CCN(Cc3cn(-c4ccccn4)nn3)CC2)c1 [Example 17, N-(3-(4-((1-(pyridin-2-yl)-1H-1,2,3-triazol-4-yl)methyl)piperazin-1-yl)phenyl)propane-2-sulfonamide] | < 500 | – |
| O=S(=O)(Nc1cccc(N2CCN(Cc3cn(-c4ccccc4)nn3)CC2)c1)C(F)(F)F [Example 18, 1,1,1-trifluoro-N-(3-(4-((1-phenyl-1H-1,2,3-triazol-4-yl)methyl)piperazin-1-yl)phenyl)methanesulfonamide] | ≥ 500 | – |
| CC(C)S(=O)(=O)Nc1cccc(N2CCN(Cc3cn(-c4ccc(F)cn4)nn3)CC2)c1 [Example 19, N-(3-(4-((1-(5-fluoropyridin-2-yl)-1H-1,2,3-triazol-4-yl)methyl)piperazin-1-yl)phenyl)propane-2-sulfonamide] | – | ++ |
| O=S(=O)(Nc1cccc(N2CCN(Cc3cn(-c4ccccc4)nn3)CC2)c1)C1CC1 [Example 20, N-(3-(4-((1-phenyl-1H-1,2,3-triazol-4-yl)methyl)piperazin-1-yl)phenyl)cyclopropanesulfonamide] | < 100 | – |
| CC(C)S(=O)(=O)Nc1cccc(N2CCN(Cc3cn(-c4ncccc4F)nn3)CC2)c1 [Example 21, N-(3-(4-((1-(3-fluoropyridin-2-yl)-1H-1,2,3-triazol-4-yl)methyl)piperazin-1-yl)phenyl)propane-2-sulfonamide] | – | ++ |
| CC(C)S(=O)(=O)Nc1cccc(N2CCN(Cc3cn(-c4cc(F)ccn4)nn3)CC2)c1 [Example 22, N-(3-(4-((1-(4-fluoropyridin-2-yl)-1H-1,2,3-triazol-4-yl)methyl)piperazin-1-yl)phenyl)propane-2-sulfonamide] | – | ++ |
| CS(=O)(=O)Nc1cccc(N2[C@@H]3CC[C@H]2CN(Cc2cn(-c4ccccc4)nn2)C3)c1 [Example 23, N-(3-((1R,5S)-3-((1-phenyl-1H-1,2,3-triazol-4-yl)methyl)-3,8-diazabicyclo[3.2.1]octan-8-yl)phenyl)methanesulfonamide] | – | ++ |
| CC(C)S(=O)(=O)Nc1cccc(N2CCN(Cc3cnn(-c4ccccn4)n3)CC2)c1 [Example 24, N-(3-(4-((2-(pyridin-2-yl)-2H-1,2,3-triazol-4-yl)methyl)piperazin-1-yl)phenyl)propane-2-sulfonamide] | ≥ 500 | – |
| CS(=O)(=O)Nc1cccc(N2CCCN(Cc3cn(-c4ccccc4)nn3)CC2)c1 [Example 25, N-(3-(4-((1-phenyl-1H-1,2,3-triazol-4-yl)methyl)-1,4-diazepan-1-yl)phenyl)methanesulfonamide] | < 500 | – |
| CC(C)S(=O)(=O)Nc1cccc(N(C)C2CCN(Cc3cn(-c4ccccc4)nn3)C2)c1 (stereo not shown) [Example 26, N-(3-(methyl(1-((1-phenyl-1H-1,2,3-triazol-4-yl)methyl)pyrrolidin-3-yl)amino)phenyl)propane-2-sulfonamide] | < 100 | – |
| CC(C)S(=O)(=O)Nc1cccc(N2CCN(Cc3cn(-c4cccc(F)c4)nn3)CC2)c1 [Example 27, N-(3-(4-((1-(3-fluorophenyl)-1H-1,2,3-triazol-4-yl)methyl)piperazin-1-yl)phenyl)propane-2-sulfonamide] | < 100 | – |
| CC(C)S(=O)(=O)Nc1cccc(N2CCN(Cc3cn(-c4ccc(F)cc4)nn3)CC2)c1 [Example 28, N-(3-(4-((1-(4-fluorophenyl)-1H-1,2,3-triazol-4-yl)methyl)piperazin-1-yl)phenyl)propane-2-sulfonamide] | < 500 | – |
| CC(C)S(=O)(=O)Nc1cccc(N2CCN(Cc3cn(-c4cccc(F)n4)nn3)CC2)c1 [Example 29, N-(3-(4-((1-(6-fluoropyridin-2-yl)-1H-1,2,3-triazol-4-yl)methyl)piperazin-1-yl)phenyl)propane-2-sulfonamide] | < 500 | – |
| CC(C)S(=O)(=O)Nc1cccc(N2CC3CN(Cc4cn(-c5ccccc5)nn4)CC3C2)c1 (stereo not shown) [Example 30, N-(3-(5-((1-phenyl-1H-1,2,3-triazol-4-yl)methyl)hexahydropyrrolo[3,4-c]pyrrol-2(1H)-yl)phenyl)propane-2-sulfonamide] | < 100 | – |
| Nc1cccc(N2CCN(Cc3cn(-c4ccccc4)nn3)CC2)c1 [Example 31, 3-(4-((1-phenyl-1H-1,2,3-triazol-4-yl)methyl)piperazin-1-yl)aniline] | ≥ 500 | – |
